Assay results reported in the supplement of paper PMC10307832.

Experiments:
Assay in all cases: relative viability (nuclei count vs DMSO), 5 days (fraction); higher = more cells survive
Doramapimod + Pemetrexed = compound: Cc1ccc(-n2nc(C(C)(C)C)cc2NC(=O)Nc2ccc(OCCN3CCOCC3)c3ccccc23)cc1 [Doramapimod] + Nc1nc2[nH]cc(CCc3ccc(C(=O)N[C@@H](CCC(=O)O)C(=O)O)cc3)c2c(=O)[nH]1 [Pemetrexed] (partner 0.2 µM)
Outline: (§1)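 Lung cancer cell lines were pin-tool dosed in 1536-well plates on the day after seeding, with either a lone drug or a fixed anchor-drug dose plus five library-drug doses (not always all listed) in √10 steps. Nuclei were counted on 4× images after 5 days. Relative viability is the ratio of treated-well to vehicle-well nuclei counts, with each value a median of duplicate plates.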

IPA-3 + Dasatinib = compound: C1=CC=C2C(=C1)C=CC(=C2SSC3=C(C=CC4=CC=CC=C43)O)O [IPA-3] + Cc1nc(Nc2ncc(C(=O)Nc3c(C)cccc3Cl)s2)cc(N2CCN(CCO)CC2)n1 [Dasatinib] (partner 0.075 µM)
Outline: as §1

IPA-3 + Alpelisib = compound: C1=CC=C2C(=C1)C=CC(=C2SSC3=C(C=CC4=CC=CC=C43)O)O [IPA-3] + Cc1nc(NC(=O)N2CCC[C@H]2C(N)=O)sc1-c1ccnc(C(C)(C)C(F)(F)F)c1 [Alpelisib] (partner 2 µM)
Outline: as §1

Doramapimod + OSI-027 = compound: Cc1ccc(-n2nc(C(C)(C)C)cc2NC(=O)Nc2ccc(OCCN3CCOCC3)c3ccccc23)cc1 [Doramapimod] + COc1cccc2cc(-c3nc([C@H]4CC[C@H](C(=O)O)CC4)n4ncnc(N)c34)[nH]c12 [OSI-027] (partner 0.5 µM)
Outline: as §1

Row | Cell Line | relative viability (Doramapimod + Pemetrexed; first compound 0.02 µM) | relative viability (Doramapimod + Pemetrexed; first compound 0.06325 µM) | relative viability (Doramapimod + Pemetrexed; first compound 0.2 µM) | relative viability (Doramapimod + Pemetrexed; first compound 0.6325 µM) | relative viability (Doramapimod + Pemetrexed; first compound 2 µM) | relative viability (IPA-3 + Dasatinib; first compound 0.2 µM) | relative viability (IPA-3 + Dasatinib; first compound 0.6325 µM) | relative viability (IPA-3 + Dasatinib; first compound 2 µM) | relative viability (IPA-3 + Dasatinib; first compound 6.325 µM) | relative viability (IPA-3 + Dasatinib; first compound 20 µM) | relative viability (IPA-3 + Alpelisib; first compound 0.2 µM) | relative viability (IPA-3 + Alpelisib; first compound 0.6325 µM) | relative viability (IPA-3 + Alpelisib; first compound 2 µM) | relative viability (IPA-3 + Alpelisib; first compound 6.325 µM) | relative viability (IPA-3 + Alpelisib; first compound 20 µM) | relative viability (Doramapimod + OSI-027; first compound 0.02 µM) | relative viability (Doramapimod + OSI-027; first compound 0.06325 µM) | relative viability (Doramapimod + OSI-027; first compound 0.2 µM) | relative viability (Doramapimod + OSI-027; first compound 0.6325 µM) | relative viability (Doramapimod + OSI-027; first compound 2 µM)
1 | NCI-H1734 | 0.416 | 0.431 | 0.419 | 0.382 | 0.39 | 0.564 | 0.486 | 0.459 | 0.507 | 0.444 | 0.733 | 0.594 | 0.692 | 0.677 | 0.822 | 0.55 | 0.508 | 0.537 | 0.589 | 0.448
2 | A-427 | 0.926 | 1 | 1 | – | 0.988 | 0.682 | 0.632 | 0.634 | 0.713 | 0.72 | 1.11 | 0.993 | 1.11 | 1.08 | 1.14 | 0.435 | 0.498 | 0.578 | – | 0.402
3 | RERF-LC-KJ | 0.471 | 0.457 | 0.474 | 0.367 | 0.501 | 0.983 | 0.729 | 0.837 | 0.759 | 0.789 | 0.933 | 0.807 | 0.83 | 0.668 | 0.928 | 0.624 | 0.543 | 0.603 | 0.6 | 0.554
4 | LCLC-97TM1 | 0.181 | 0.171 | 0.164 | 0.184 | 0.156 | 0.933 | 0.844 | 0.945 | 1.01 | 0.83 | 0.281 | 0.299 | 0.241 | 0.232 | 0.246 | 0.533 | 0.412 | 0.517 | 0.437 | 0.432
5 | BEN | 0.74 | 0.849 | 0.795 | 0.673 | 0.795 | 0.471 | 0.35 | 0.323 | 0.342 | 0.283 | 1.28 | 0.992 | 1.09 | 0.954 | 1.26 | 0.317 | 0.309 | 0.33 | 0.236 | 0.316
6 | NCI-H2023 | 0.215 | 0.219 | 0.226 | 0.259 | 0.215 | 0.816 | 0.513 | 0.68 | 0.493 | 0.679 | 0.737 | 0.636 | 0.575 | 0.628 | 0.768 | 0.362 | 0.362 | 0.369 | 0.479 | 0.301
7 | LC-2-ad | 0.268 | 0.291 | 0.297 | 0.28 | 0.289 | 0.616 | 0.537 | 0.662 | 0.611 | 0.615 | 0.927 | 0.808 | 0.897 | 0.82 | 0.941 | 0.897 | 0.811 | 0.891 | 0.827 | 0.671
8 | NCI-H647 | 0.195 | 0.138 | 0.15 | 0.168 | 0.152 | 0.271 | 0.175 | 0.192 | 0.115 | 0.0437 | 1.49 | 1.06 | 1.18 | 0.537 | 0.11 | 0.702 | 0.546 | 0.706 | 0.711 | 0.639
